# Reference: US6124308A, “Optically active phenyl pyrimidine derivatives as analgesic agent” (priority 1995, dated 2000)
# pIC50: −log10 of the molar value. Like-named read-outs stand apart in the source and are kept apart here.
# What was measured:
# [1] = system: maximal electroshock seizure; experiment: Maximal electroshock test, rats, i.v., stronger current (200 mA); type: in vivo; settings: Rattus norvegicus, iv, 1 h
# Source text: A stronger current (200 mA) was used compared with that (20 mA) used in the other procedures.
# [2] = system: veratrine-evoked glutamate release from rat brain slices; experiment: Inhibition of veratrine-evoked glutamate release; type: cell-based
# [3] = molecular target: T1, rat type IIA sodium channels (Rattus norvegicus, UniProt P04775); experiment: Recombinant rat type IIA sodium channels in chinese hamster ovary cells, whole-cell recording; type: cell-based; settings: for inhibition of Na+ currents: R(-)enantiomer 1-500 μM
# T1 construct: no beta subunit mentioned
# Source text: The IC50 's at two different holding potentials (Vh) were as follows: […]
# [4] = system: PGE2-induced acute hyperalgesia; experiment: Effects on the development of PGE2-induced acute hyperalgesia (paw pressure); type: in vivo, rat; settings: 1 h before PGE2 (100 ng), n=5
# Method: Effects on the development of PGE2 -induced acute hyperalgesia
# Reaction times to paw pressure were measured 3 h after PGE2 injection. Ataxia was scored at the same time by observation of the rats placed in an arena.
# [5] = system: whole-cell sodium currents in cultured rat hippocampal neurones; experiment: Whole-cell sodium currents in cultured embryonic rat hippocampal neurones, patch-clamp; type: cell-based; settings: for pIC50: 20 msec pulses to -10 mV from holding potential -60 mV, read-out: IC50 (reduction of peak sodium current); for reduction of peak sodium current: holding potential -60 mV
# Source text: (b) Cultured embryonic rat hippocampal neurones
# Sodium currents were elicited by the application of 20 msec dipolarisng pulses, thereby lowering membrane potential to -10 mV from a holding potential of -60 mV.
# [6] = system: hind-limb extension (maximal electroshock seizure); experiment: Maximal electroshock test, rats, i.p., duration of action; type: in vivo, rat; settings: for ED50: Rattus norvegicus, ip, read-out: ED50 (95% limits)
# [7] = system: maximal electroshock seizure; experiment: Maximal electroshock test, mice, different routes of administration; type: in vivo, mouse; settings: for ED50: Mus musculus, mice, 1 hour, read-out: ED50 (95% limits)
# rat liver DHFR = molecular target: T2, rat liver DHFR (Rattus norvegicus, UniProt Q920D2); experiment: Activity against dihydrofolate reductase (DHFR), spectrophotometric assay; type: biochemical
# T2 construct: rat liver DHFR; from tissue; host or cells: rat liver
# T2 sequence (Q920D2 1-187): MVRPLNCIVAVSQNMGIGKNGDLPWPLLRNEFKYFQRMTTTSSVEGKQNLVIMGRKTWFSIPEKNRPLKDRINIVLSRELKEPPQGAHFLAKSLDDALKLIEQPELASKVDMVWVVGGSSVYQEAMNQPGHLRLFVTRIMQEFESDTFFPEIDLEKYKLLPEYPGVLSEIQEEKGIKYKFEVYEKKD
# [8] = system: electrical activity of the external oblique muscle (egg albumin sensitised rats); experiment: Irritable bowel syndrome model: colorectal distension in egg albumin sensitised rats; type: in vivo, rat; settings: 10 mg/kg p.o., 60 minutes before pressure response curve
# Method: Male Listar hooded rats weight range 100-150 g were used.
# The rats were sensitised by dosing ip (1 ml per rat) with a solution containing egg albumin, (10 ug/ml) pertusssis vaccine (1 mg/ml) and aluminium hydroxide (10 mg/ml). Control animals received saline.
# Seven days later the rats were anaesthetised using isofurane and the external oblique muscle exposed. Two nichrome wires were implanted into the muscles and the wires exteriorised to the back of the neck, the skin was sutured and the animals were allowed to recover.
# Six days later the animals were fasted overnight. On the following day the animals were anaesthetised and the colorectum washed out using saline. A 4 cm long latex balloon tied to a portex cannula was connected to an inflation device, and the nichrome electrodes at the back of the neck were connected to head stage.
# The electrical activity of the external oblique muscle was recorded by a data capture system (`spike2`) which calculated the number of electrical spikes. Sequential pressure response curves (10-100 mmHg) in sensitised and the control animals were constructed. The balloon was inflated for 1 min at each pressure, followed by a rest period of 5 min.
# The mean number of spikes at each pressure was calculated for the control animals, sensitised animals and sensitised animals treated with the R(-) enantiomer. […]
# [9] = system: established PGE2-induced acute hyperalgesia; experiment: Effects on established PGE2-induced acute hyperalgesia (paw pressure); type: in vivo; settings: Rattus norvegicus, po, 2 h after PGE2 (100 ng); read-out: analgesia ED50 and 95% confidence limits
# Method: Effects on established PGE2 -induced acute hyperalgesia
# The R(-)enantiomer was given orally 2 h after subplantar injection of PGE2 (100 ng) when the hyperalgesia was established. Reaction time to paw pressure was measured 3 h after the PGE2 administration.
# [10] = system: striatal dopamine in MPTP injected C57B1/6 mice; experiment: MPTP induced neurotoxic model, striatal dopamine levels; type: in vivo, mouse
# Method: Six-week old male C57B1/6 mice (Japan SLC Co., Hamamatu) were housed ten per case in a temperature-controlled room under a 12-hours light/12-hours dark cycle with free access to food and water.
# Mice received i.p. injections of the R(-) enantiomer and the S(+) enantiomer (30 mg/kg) in olive oil starting 12 hours before MPTP injection and every 12 hours for the next 5-injections. Control mice received olive oil only.
# Mice receive s.c. injection of MPTP-HCl (40 mg of free base per kg; Research Biochemicals) in saline. Control mice received saline only.
# HPLC with electrochemical detection was used to measure striatal levels of dopamine (J.C. Garcia': Journal of Chromatography B. 656 (1994) 77-80).
# Seven days after the MPTP injection, mice ([…]) were killed and striata were dissected out, immediately frozen, and stored at -80° C. until analysis. On the day of the assay, tissue samples were sonicated in 10 vol(wt/vol) of 0.1M perchloric acid /1.9 mM sodium hydrogen sulfite containing 1.6μg/ml 3,4-dihydroxybenzylamine hydrobromide(Sigma) as an internal standard. After centrifugation (2,800× g for 10 min at room temperature) and filtration (0.5 μm; Millipore membrane filter), 10 μl of supernatant was injected onto an Inertsil ODS3 column (4.6×250 mm; GL Science, Tokyo). The mobile phase consisted of 88% 115 mM NaH2 PO4 /0.178 mM Na2 EDTA /0.92 mM 1-octanesulfonic acid (pH=2.6) solution and 12% ethanol. F low rate was 1.0 ml/min. Peaks were detected by a Shimazu electrochemical detector LECD-6A(700 mV).
# [11] = system: native channels in cultured rat striatal neurones (Na+ currents); experiment: Native sodium channels in cultured rat striatal neurones, whole-cell recording; type: cell-based
# Source text: The action of the R(-)enantiomer on native channels in cultured rat striatal neurones was studied using whole-cell recording techniques.
# Half-life in male rats = type: in vivo, rat; settings: rat, in vivo, read-out: half-life (t1/2) (converted)
# T1 sequence (P04775 whole entry): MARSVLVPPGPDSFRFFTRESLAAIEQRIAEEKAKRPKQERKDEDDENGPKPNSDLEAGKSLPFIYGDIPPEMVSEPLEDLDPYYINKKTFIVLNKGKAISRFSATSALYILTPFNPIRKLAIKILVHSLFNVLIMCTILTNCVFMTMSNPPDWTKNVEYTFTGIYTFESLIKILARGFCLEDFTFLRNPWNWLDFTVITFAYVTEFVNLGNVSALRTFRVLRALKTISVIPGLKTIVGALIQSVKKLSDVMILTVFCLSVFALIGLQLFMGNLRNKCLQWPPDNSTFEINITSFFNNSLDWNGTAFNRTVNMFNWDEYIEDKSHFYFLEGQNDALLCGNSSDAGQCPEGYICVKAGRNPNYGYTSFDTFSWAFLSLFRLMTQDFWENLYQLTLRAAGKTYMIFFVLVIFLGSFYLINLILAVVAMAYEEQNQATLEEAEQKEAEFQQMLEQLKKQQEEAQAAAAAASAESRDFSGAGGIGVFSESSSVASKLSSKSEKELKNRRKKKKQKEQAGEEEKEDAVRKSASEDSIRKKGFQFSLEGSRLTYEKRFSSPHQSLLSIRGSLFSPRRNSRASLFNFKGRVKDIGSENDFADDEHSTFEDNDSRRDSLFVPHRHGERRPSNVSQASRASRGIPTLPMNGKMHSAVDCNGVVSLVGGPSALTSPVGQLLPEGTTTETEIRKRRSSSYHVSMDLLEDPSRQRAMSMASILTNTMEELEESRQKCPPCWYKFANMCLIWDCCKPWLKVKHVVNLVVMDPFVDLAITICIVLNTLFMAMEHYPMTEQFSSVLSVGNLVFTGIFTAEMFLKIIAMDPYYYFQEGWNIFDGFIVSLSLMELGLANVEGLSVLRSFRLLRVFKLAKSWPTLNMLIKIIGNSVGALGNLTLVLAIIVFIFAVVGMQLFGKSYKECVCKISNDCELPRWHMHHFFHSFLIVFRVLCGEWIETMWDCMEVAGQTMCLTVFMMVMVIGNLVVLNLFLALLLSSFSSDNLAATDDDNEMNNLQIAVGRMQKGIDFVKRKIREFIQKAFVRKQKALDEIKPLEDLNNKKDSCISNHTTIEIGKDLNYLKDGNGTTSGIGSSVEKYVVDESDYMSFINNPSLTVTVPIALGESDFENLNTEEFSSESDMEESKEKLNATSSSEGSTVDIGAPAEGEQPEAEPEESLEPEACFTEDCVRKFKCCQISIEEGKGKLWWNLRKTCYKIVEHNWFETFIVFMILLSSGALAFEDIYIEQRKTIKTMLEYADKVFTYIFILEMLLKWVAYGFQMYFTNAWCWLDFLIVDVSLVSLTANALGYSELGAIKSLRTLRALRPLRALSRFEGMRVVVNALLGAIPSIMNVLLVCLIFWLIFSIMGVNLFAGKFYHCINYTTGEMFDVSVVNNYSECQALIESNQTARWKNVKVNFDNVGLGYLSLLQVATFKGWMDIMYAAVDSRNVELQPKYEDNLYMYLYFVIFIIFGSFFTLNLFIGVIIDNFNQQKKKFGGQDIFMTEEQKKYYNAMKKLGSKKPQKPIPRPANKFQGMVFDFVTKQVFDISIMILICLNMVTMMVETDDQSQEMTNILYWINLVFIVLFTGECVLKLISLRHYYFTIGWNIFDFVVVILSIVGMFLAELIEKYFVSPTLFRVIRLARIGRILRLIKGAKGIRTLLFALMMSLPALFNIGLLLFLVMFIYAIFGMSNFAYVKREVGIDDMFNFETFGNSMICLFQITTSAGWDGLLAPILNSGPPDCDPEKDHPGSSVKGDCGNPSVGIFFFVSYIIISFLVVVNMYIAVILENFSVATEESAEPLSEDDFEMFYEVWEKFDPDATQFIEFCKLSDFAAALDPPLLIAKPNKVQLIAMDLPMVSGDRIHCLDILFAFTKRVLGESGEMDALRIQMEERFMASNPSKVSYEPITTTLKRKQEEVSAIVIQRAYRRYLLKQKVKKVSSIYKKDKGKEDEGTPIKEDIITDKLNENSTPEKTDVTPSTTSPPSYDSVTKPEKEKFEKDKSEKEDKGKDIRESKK
smiles,measurement,setting,value
"Nc1nnc(-c2cccc(Cl)c2Cl)c(N)n1 [Lamotrigine, 3,5-diamino-6-(2,3-dichlorophenyl)-1,2,4-triazine, reference compound]",ED50,[1],2.5 mg/kg
same,pIC50,[2]; Rattus norvegicus,4.68
same,pIC50,"[3]; IC50 (inhibition of Na+ currents), Vh = -60 mV",4.01
same,pIC50,"[3]; IC50 (inhibition of Na+ currents), Vh = -90 mV",3.38
same,inhibition of Na+ currents,[3],inhibition of Na^+ currents in a concentration-dependent and voltage-dependent manner
same,ED50,"[4]; Rattus norvegicus, po, read-out: Analgesia ED50 (95% limits)",34.8 mg/kg
same,pIC50,"[5]; Rattus norvegicus, Hippocampal neurone",4.80
same,reduction of peak sodium current,[5],concentration-dependent reduction of peak sodium current
same,ED50,"[6]; rats, 0.5 hours",2.7 mg/kg
same,ED50,"[6]; rats, 1 hour",3.3 mg/kg
same,ED50,"[6]; rats, 2 hours",2.7 mg/kg
same,ED50,"[6]; rats, 4 hours",2.3 mg/kg
same,ED50,"[6]; rats, 8 hours",4.8 mg/kg
same,ED50,"[6]; rats, 24 hours",7.1 mg/kg
same,ED50,"[7]; ip, i.p.",2.3 mg/kg
same,ED50,"[7]; po, p.o.",3.3 mg/kg
same,ED50,"[7]; sc, s.c.",1.8 mg/kg
"Nc1nc(N)c(-c2cccc(Cl)c2Cl)c(CF)n1 [R(-)enantiomer, R(-)-2,4-diamino-5-(2,3-dichlorophenyl)-6-fluoromethyl pyrimidine]",inhibition at 100 µM,rat liver DHFR,25%
same,reversal of the changes induced by egg albumin,[8],complete reversal
same,inhibition of veratrine-evoked glutamate release,[2]; at 10 μM,64%
same,inhibition of Na+ currents,[3],inhibition of Na^+ currents in a concentration-dependent and voltage-dependent manner
same,pIC50,"[3]; Vh = -60 mV, read-out: IC50 (inhibition of Na+ currents)",4.74
same,pIC50,"[3]; Vh = -90 mV, read-out: IC50 (inhibition of Na+ currents)",3.80
same,Analgesia ED50 (95% limits),[4]; p.o.,2.5 (2.2-2.9) mg/kg
same,ED50,[9],3.4 mg/kg
same,pIC50,[5],5.40
same,reduction of peak sodium current,[5],concentration-dependent reduction of peak sodium current
same,ED50,"[6]; 8 h, i.p., rats, 8 hours",5.9 mg/kg
same,ED50,"[6]; 24 h, i.p., rats, 24 hours",12.9 mg/kg
same,times more active than its S(=)enantiomer,"[6]; anticonvulsant, rats, i.p.",15-20 times
same,times more active than lamotrigine,"[6]; anticonvulsant, rats, i.p.",2-3 times
same,ED50 at 2 hrs (isethionate salt versus base),"[6]; i.p., 2 hrs, calculated as the base, p<0.05, listed as R(-) enantiomer base, 120 min",2.5 mg/kg
same,ED50 (95% limits),"[6]; i.p., rats, 0.5 hours, 30 min",1.3 (0.9-1.9) mg/kg
same,ED50 (95% limits),"[6]; i.p., rats, 1 hour, 60 min",1.0 (0.7-1.5) mg/kg
same,ED50 (95% limits),"[6]; i.p., rats, 2 hours, 120 min",1.2 (0.8-1.7) mg/kg
same,ED50 (95% limits),"[6]; i.p., rats, 4 hours, 240 min",2.3 (1.6-3.4) mg/kg
same,duration of action,[6]; maximal electroshock,long duration of action
same,ED50,"[7]; ip, i.p.",1.3 mg/kg
same,ED50,"[7]; po, p.o.",1.2 mg/kg
same,ED50,"[7]; sc, s.c.",0.96 mg/kg
same,times more potent than lamotrigine in the maximal electroshock test,[7]; in rats and mice,2-3 times
same,activity by the various routes tested,"[7]; maximal electroshock, rats and mice",approximately equiactive by the various routes tested
same,% protection,"[10]; 30 mg/kg i.p. 6 times, MPTP 40 mg/kg s.c.",81.0%
same,Dopamine content in the striatum,"[10]; 30 mg/kg i.p. 6 times, MPTP 40 mg/kg s.c., day 7",12.45 ± 1.18 μg/g wet tissue
same,% mortality,"[10]; 30 mg/kg i.p., day -1 to 7",0%
same,inhibition of Na+ currents,[11],concentration- and voltage-dependent inhibition of Na^+ currents
same,inhibition by 10-30 μM on hyperpolarising the cells,"[11]; 10-30 μM, Vh = -120 mV",virtually eliminated
same,pIC50,"[11]; Rattus norvegicus, holding potential (Vh) of 60 mV, read-out: IC50 (inhibition of Na+ currents)",~5.10
same,potency at Vh = -90 mV compared with IC50 at 60 mV,[11]; Vh = -90 mV,much lower potency
same,half-life,Half-life in male rats,5.4 h
